system: paw twitch; test: Twitch depression (muscle relaxant effect) in anesthetized dogs; dog paw twitch; format: in vivo, mongrel dogs; conditions: Canis lupus familiaris, iv; Table V, dog paw twitch; read-out: Equi-efficacious dose
Protocol: (§1) Mongrel dogs were injected with 50 mg/kg of pentobarbital until the onset of anesthesia as determined by the eyeblink reflex test. The injectable solutions prepared above were administered intravenously to the anesthesized mongrel dogs and measurements were made of the muscle relaxant effect including maximum twitch depression, onset, duration and recovery time in a clinically known manner. Each of the subjects were compared with a control animal receiving an injection of distilled water.

Compound | ED90 [mg/kg]
COc1cc2c(cc1OC)C(Cc1cc(OC)c(OC)c(OC)c1)[N+](C)(CCCOC(=O)CCC=CCCC(=O)OCCC[N+]1(C)CCc3cc(OC)c(OC)cc3C1Cc1cc(OC)c(OC)c(OC)c1)CC2 (stereo not drawn) [BW1090] | 0.39

same assay, conditions: Table V, dog, at equi-efficacious dose

Compound | Duration (DURAT.) [min] | Onset [s] | Recovery (RECOV.) [min]
COc1cc2c(cc1OC)C(Cc1cc(OC)c(OC)c(OC)c1)[N+](C)(CCCOC(=O)CCC=CCCC(=O)OCCC[N+]1(C)CCc3cc(OC)c(OC)cc3C1Cc1cc(OC)c(OC)c(OC)c1)CC2 (stereo not drawn) [BW1090] | 75.0 | 195.5 | 70.3

system: paw twitch; test: Twitch depression (muscle relaxant effect) in anesthetized rabbits; rabbit paw twitch; format: in vivo, New Zealand White rabbits; conditions: Oryctolagus cuniculus; Table IV, rabbit paw twitch; read-out: Equi-efficacious dose
Protocol: [The procedure below names another organism; the source lists this organism under the same test.] as §1
The same compound of the present invention as in
A number of compounds in accordance with the present invention were tested for their neuromuscular blockade Properties. Specifically, the acid addition salts of the compounds were dissolved in sterile water for injection.

Compound | ED90 [mg/kg]
COc1cc2c(cc1OC)C(Cc1cc(OC)c(OC)c(OC)c1)[N+](C)(CCCOC(=O)CCC=CCCC(=O)OCCC[N+]1(C)CCc3cc(OC)c(OC)cc3C1Cc1cc(OC)c(OC)c(OC)c1)CC2 (stereo not drawn) [BW1090] | 0.504
C[N+](C)(C)CCCCCCCCCC[N+](C)(C)C [decamethonium] | 0.165
COc1ccc2cc1Oc1cc3c(cc1OC)CC[N+](C)(C)[C@H]3Cc1ccc(cc1)Oc1c(OC)c(OC)cc3c1[C@@H](C2)[N+](C)(C)CC3 [metocurine] | 0.025

same assay, conditions: Table IV, rabbit paw twitch

Compound | Equi-efficacious dose [mg/kg]
COc1cc(CC2c3c(cc(OC)c(OC)c3OC)CC[N+]2(C)CCCOC(=O)CCC(=O)OCCC[N+]2(C)CCc3cc(OC)c(OC)c(OC)c3C2Cc2cc(OC)c(OC)c(OC)c2)cc(OC)c1OC (stereo not drawn) [BW938] | 0.010
descuronium | 0.053

same assay, conditions: Table IV, rabbit, at equi-efficacious dose

Compound | Duration (DURAT.) [min] | Onset [s] | Recovery (RECOV.) [min]
COc1cc(CC2c3c(cc(OC)c(OC)c3OC)CC[N+]2(C)CCCOC(=O)CCC(=O)OCCC[N+]2(C)CCc3cc(OC)c(OC)c(OC)c3C2Cc2cc(OC)c(OC)c(OC)c2)cc(OC)c1OC (stereo not drawn) [BW938] | 167.0 | 282.4 | 101.7
COc1cc2c(cc1OC)C(Cc1cc(OC)c(OC)c(OC)c1)[N+](C)(CCCOC(=O)CCC=CCCC(=O)OCCC[N+]1(C)CCc3cc(OC)c(OC)cc3C1Cc1cc(OC)c(OC)c(OC)c1)CC2 (stereo not drawn) [BW1090] | 8.7 | 48.5 | 7.3
C[N+](C)(C)CCCCCCCCCC[N+](C)(C)C [decamethonium] |  | 104.0 | 
COc1ccc2cc1Oc1cc3c(cc1OC)CC[N+](C)(C)[C@H]3Cc1ccc(cc1)Oc1c(OC)c(OC)cc3c1[C@@H](C2)[N+](C)(C)CC3 [metocurine] | 37.8 | 72.4 | 34.9
descuronium | 21.5 | 129.4 | 13.1

same assay, conditions: Table IV, rabbit, at equi-efficacious dose; depolarizer, based on twitch recovery not to-f

Compound | Duration (DURAT.) [min] | Recovery (RECOV.) [min]
C[N+](C)(C)CCCCCCCCCC[N+](C)(C)C [decamethonium] | 41.7 | 41.7

same assay, conditions: Table VI, rabbit paw twitch, at indicated dose

Compound | Onset [s]
CCOC(=O)C[N+](CC)=C1C=C(N2CCC3(CC2)OCC2(CO3)COC3(CCN(C4=CC(=[N+](CC)CC(=O)OCC)CC(C)(C)C4)CC3)OC2)CC(C)(C)C1 | 39
CC1(C)CC(N2CCC3(CC2)OCC2(CO3)COC3(CCN(C4=CC(=[N+](Cc5ccco5)Cc5ccco5)CC(C)(C)C4)CC3)OC2)=CC(=[N+](Cc2ccco2)Cc2ccco2)C1 [compound 11] | 77.3
CC[N+](Cc1cccs1)=C1C=C(N2CCC3(CC2)OCC2(CO3)COC3(CCN(C4=CC(=[N+](CC)Cc5cccs5)CC(C)(C)C4)CC3)OC2)CC(C)(C)C1 [compound 13] | 88.1
CC1(C)CC(N2CCC3(CC2)OCC2(CO3)COC3(CCN(C4=CC(=[N+]5CCCC6(CC5)OCCO6)CC(C)(C)C4)CC3)OC2)=CC(=[N+]2CCCC3(CC2)OCCO3)C1 [compound 14] | 52.8
CC1(C)CC(N2CCC3(CC2)OCC2(CO3)COC3(CCN(C4=CC(=[N+]5CC6CCC(CC6)C5)CC(C)(C)C4)CC3)OC2)=CC(=[N+]2CC3CCC(CC3)C2)C1 [compound 17] | 49.6
CC1(C)CC(N2CCC3(CC2)OCC2(CO3)COC3(CCN(C4=CC(=[N+]5CCCCCCC5)CC(C)(C)C4)CC3)OC2)=CC(=[N+]2CCCCCCC2)C1 [compound 20] | 57.5
CCC[N+](CC1CC1)=C1C=C(N2CCC3(CC2)OCC2(CO3)COC3(CCN(C4=CC(=[N+](CCC)CC5CC5)CC(C)(C)C4)CC3)OC2)CC(C)(C)C1 [compound 21] | 47.7
CC1(C)CC(N2CCC3(CC2)OCC2(CO3)COC3(CCN(C4=CC(=[N+]5CCCCCC5)CC(C)(C)C4)CC3)OC2)=CC(=[N+]2CCCCCC2)C1 [compound 24] | 64
CC1CC[N+](=C2C=C(N3CCC4(CC3)OCC3(CO4)COC4(CCN(C5=CC(=[N+]6CCC(C)CC6)CC(C)(C)C5)CC4)OC3)CC(C)(C)C2)CC1 (stereo not drawn) [compound 28] | 49.9
CC1(C)CC(N2CCC3(CC2)OCC2(CO3)COC3(CCN(C4=CC(=[N+]5CCCCCC5)CC(C)(C)C4)CC3)OC2)=CC(=[N+]2CCCCCC2)C1 [compound 29] | 56.1
CC1CCC[N+](=C2C=C(N3CCC4(CC3)OCC3(CO4)COC4(CCN(C5=CC(=[N+]6CCCC(C)C6)CC(C)(C)C5)CC4)OC3)CC(C)(C)C2)C1 (stereo not drawn) [compound 33] | 53.1
C=CC[N+](CC=C)=C1C=C(N2CCC3(CC2)OCC2(CO3)COC3(CCN(C4=CC(=[N+](CC=C)CC=C)CC(C)(C)C4)CC3)OC2)CC(C)(C)C1 [compound 35] | 61.9
C[N+](CCc1ccccc1)=C1C=C(N2CCC3(CC2)OCC2(CO3)COC3(CCN(C4=CC(=[N+](C)CCc5ccccc5)CC(C)(C)C4)CC3)OC2)CC(C)(C)C1 [compound 36] | 81.9
CC1(C)CC(N2CCC3(CC2)OCC2(CO3)COC3(CCN(C4=CC(=[N+]5CC6(C)CC5CC(C)(C)C6)CC(C)(C)C4)CC3)OC2)=CC(=[N+]2CC3(C)CC2CC(C)(C)C3)C1 [compound 39] | 75.9
CC[N+](CC)=C1C=C(N2CCC3(CC2)OCC2(CO3)COC3(CCN(C4=CC(=[N+](CC)CC)CC(C)C4)CC3)OC2)CC(C)C1 (stereo not drawn) [compound 41] | 51

system: not listed separately; test: Cardiovascular change (HR, BP) at equi-efficacious dose in rabbits; format: in vivo; conditions: Table IV, rabbit, at equi-efficacious dose

Compound | BP % [%] | HR % [%]
COc1cc2c(cc1OC)C(Cc1cc(OC)c(OC)c(OC)c1)[N+](C)(CCCOC(=O)CCC=CCCC(=O)OCCC[N+]1(C)CCc3cc(OC)c(OC)cc3C1Cc1cc(OC)c(OC)c(OC)c1)CC2 (stereo not drawn) [BW1090] | 1.2 | -0.4
C[N+](C)(C)CCCCCCCCCC[N+](C)(C)C [decamethonium] | -2.6 | -2.8
COc1ccc2cc1Oc1cc3c(cc1OC)CC[N+](C)(C)[C@H]3Cc1ccc(cc1)Oc1c(OC)c(OC)cc3c1[C@@H](C2)[N+](C)(C)CC3 [metocurine] | -1.6 | 0.2

same assay, conditions: rabbit, in vivo

Compound | BP % [%] | HR % [%]
COc1cc(CC2c3c(cc(OC)c(OC)c3OC)CC[N+]2(C)CCCOC(=O)CCC(=O)OCCC[N+]2(C)CCc3cc(OC)c(OC)c(OC)c3C2Cc2cc(OC)c(OC)c(OC)c2)cc(OC)c1OC (stereo not drawn) [BW938] | -5.2 | -3.8
descuronium | -7.6 | -4.1

system: not listed separately; test: Cardiovascular change (HR, BP) at equi-efficacious dose in dogs; format: in vivo; conditions: Table V, dog, at equi-efficacious dose

Compound | BP % [%] | HR % [%]
COc1cc2c(cc1OC)C(Cc1cc(OC)c(OC)c(OC)c1)[N+](C)(CCCOC(=O)CCC=CCCC(=O)OCCC[N+]1(C)CCc3cc(OC)c(OC)cc3C1Cc1cc(OC)c(OC)c(OC)c1)CC2 (stereo not drawn) [BW1090] | -3.1 | 0.7
